Reference: ChEMBL document CHEMBL1148901, “07H239-A, a new cytotoxic eremophilane sesquiterpene from the marine-derived Xylariaceous fungus LL-07H239” (J Nat Prod, 2004)
In brackets after ≈: the same amount, converted by molar mass.

Tests used:
Assay type in all cases: functional, cell-based
[1] = Cytotoxicity against human CCL228 cells
MCF7 = test: Cytotoxicity against human MCF7 cells
[2] = Cytotoxicity against human A2780S cells; details: A2780
Caco-2 = test: Cytotoxicity against human Caco-2 cells
[3] = Cytotoxicity against human A2780DDP cells
[4] = Cytotoxicity against human LS 174T cells; details: LS174T
SW948 = test: Cytotoxicity against human SW948 cells
DU-145 = test: Cytotoxicity against human DU145 cells
SK-BR-3 = test: Cytotoxicity against human SK-BR-3 cells
CX-1 = test: Cytotoxicity against human CX-1 cells
[5] = Cytotoxicity against human NEC cells
HCT-15 = test: Cytotoxicity against human HCT15 cells
[6] = Cytotoxicity against human LOX cells
SW-620 = test: Cytotoxicity against human SW620 cells
LNCaP = test: Cytotoxicity against human LNCAP cells
PC-3 = test: Cytotoxicity against human PC3 cells
CCRF-CEM = test: Cytotoxicity against human CCRF-CEM cells
[7] = Cytotoxicity against human […] cells
T47D = test: Cytotoxicity against human T47D cells
LX-1 = test: Cytotoxicity against human LX1 cells
COLO 205 = test: Cytotoxicity against human COLO205 cells
A549 = test: Cytotoxicity against human A549 cells

C=C(C=O)[C@@H]1C[C@@]2(C)C(=CC1=O)[C@H](OC(=O)/C=C/C=C/C(C)CC(C)CC)CC[C@@H]2C(=O)O (relative stereo)
IC50 [1]: 3.04 µg/mL (≈ 6.66 µM)
IC50 (MCF7): 2.83 µg/mL (≈ 6.2 µM)
IC50 [2]: 3.09 µg/mL (≈ 6.77 µM)
IC50 (Caco-2): 3.25 µg/mL (≈ 7.12 µM)
IC50 [3]: 3.01 µg/mL (≈ 6.59 µM)
IC50 [4]: 3.29 µg/mL (≈ 7.21 µM)
IC50 (SW948): 3.09 µg/mL (≈ 6.77 µM)
IC50 (DU-145): 3.06 µg/mL (≈ 6.7 µM)
IC50 (SK-BR-3): 3.53 µg/mL (≈ 7.73 µM)
IC50 (CX-1): 3.21 µg/mL (≈ 7.03 µM)
IC50 [5]: 3.38 µg/mL (≈ 7.4 µM)
IC50 (HCT-15): 4.08 µg/mL (≈ 8.94 µM)
IC50 [6]: 3.43 µg/mL (≈ 7.51 µM)
IC50 (SW-620): 3.6 µg/mL (≈ 7.88 µM)
IC50 (LNCaP): 3.06 µg/mL (≈ 6.7 µM)
IC50 (PC-3): 3.59 µg/mL (≈ 7.86 µM)
IC50 (CCRF-CEM): 0.88 µg/mL (≈ 1.93 µM)
IC50 [7]: 2.47 µg/mL (≈ 5.41 µM)
IC50 (T47D): 3.5 µg/mL (≈ 7.67 µM)
IC50 (LX-1): 4.16 µg/mL (≈ 9.11 µM)
IC50 (COLO 205): 3.41 µg/mL (≈ 7.47 µM)
IC50 (A549): 3.95 µg/mL (≈ 8.65 µM)
